This passage reports IC50, Activity (pM (2*10e6*cells)-1) and Ratio results from ChEMBL document CHEMBL1133882, “Benzyloxybenzaldehyde analogues as novel adenylyl cyclase activators” (Bioorg Med Chem Lett, 2001).

pIC50: −log10 of the molar value.

Format in all cases: functional
For one assay, the system named is Rattus norvegicus. Briefly: In vitro inhibitory effect on neutrophil superoxide formation isolated from pentobarbital-anesthetized rats.
Assay [1] concerns the target Adenylate cyclase (Homo sapiens) (UniProt Q8NFM4+O60503+Q08828+P40145+O60266+O95622+O43306+Q08462+P51828). Briefly: Effect of compound on cellular c-AMP levels by activation of Adenylate cyclase.
Assay [2] can be described thus: Ratio of cAMP-elevating activity relative to forskolin.

For the compound `O=Cc1cccc(OCc2ccccc2)c1`, the negative logarithm of the IC50 (pIC50) in the assay with Rattus norvegicus was < 4.52. This compound showed an Activity (pM (2*10e6*cells)-1) in assay [1] of 0.56. Besides, the Ratio in assay [2] came to 0.46.
On the same counts, the results for `NC(=O)c1ccccc1OCc1ccccc1` are 4.70, 0.29 and 0.24.
In the assay with Rattus norvegicus, `CN1CCN(CCCN2c3ccccc3Sc3ccc(C(F)(F)F)cc32)CC1` [TRIFLUOPERAZINE] had a pIC50 of 4.83.
`CC(=O)c1ccccc1OCc1ccccc1` showed a pIC50 with Rattus norvegicus of 4.89. Also, the Activity (pM (2*10e6*cells)-1) in assay [1] was determined as 0.26. The Ratio in assay [2] came out at 0.22.
For the compound `C=C[C@@]1(C)CC(=O)[C@]2(O)[C@@]3(C)[C@@H](O)CCC(C)(C)[C@@H]3[C@H](O)[C@H](OC(C)=O)[C@@]2(C)O1`, the Activity (pM (2*10e6*cells)-1) in assay [1] was < 1.23. Besides, in assay [2], the Ratio was determined as 1.
For `O=Cc1ccccc1OCc1ccccc1`, in the assay with Rattus norvegicus, the pIC50 is 4.81. The compound also registered an Activity (pM (2*10e6*cells)-1) in assay [1] of 1.3. In addition, the Ratio in assay [2] was found to be 1.1.
In turn, `O=Cc1ccc(OCc2ccccc2)cc1` showed a pIC50 with Rattus norvegicus of 4.83. The compound also registered an Activity (pM (2*10e6*cells)-1) in assay [1] of 0.26. In assay [2], the Ratio is 0.22.

In general, pIC50 refers to the IC50 on a negative log10 scale, so that one unit is a factor of ten. The low end stands for a large IC50, the high end for a small IC50.
